Experimental data: patent publication US20250144250A1, “PH-SENSITIVE FLUOROPHORES” (The General Hospital Corporation, priority 2022, published 2025)

What was measured:
[1] = Measurement of optophysical properties (absorbance, fluorescence emission, quantum yield, pH dependence); assay type: physicochemical; conditions: for Abs λMax / Em λMax / QY (quantum yield) / ε (extinction coefficient): pH 7.4
Protocol: Measurement of optophysical properties: Absorbance and fluorescence emission spectra of the series of NIR fluorophores were measured using fiber optic HR2000 absorbance (200-1100 nm) and USB2000FL fluorescence (350-1000 nm) spectrometers (Ocean Optics, Dunedin, FL). NIR excitation was provided by a 655 nm red laser pointer (Opcom Inc., Xiamen, China) set to 5 mW and coupled through a 300 μm core diameter, NA 0.22 fiber (Fiberguide Industries, Stirling, NJ). To determine the pH dependence of the fluorescence signal, optical measurements were performed at 37° C. in PBS, pH 4.0-7.4 or 100% FBS buffered with 50 mM HEPES, pH 4.0-7.4. The pH of the solutions was adjusted as appropriate with NaOH and HCl using a pH spear tester (Thermo Scientific). For fluorescence quantum yield (QY) measurements, indocyanine green (ICG) in DMSO (QY=13%) was used as a calibration standard to measure the fluorescence QY under conditions of matched absorbance at 765 nm. In silico calculations of the partition coefficient (LogP and LogD at pH 7.4), surface molecular charge, hydrophobicity, hydrogen bond acceptors/donors (HBA/HBD), the acid dissociation constant (pKa), and topological polar surface area (TPSA) were calculated using Marvin and JChem calculator plugins (ChemAxon, Budapest, Hungary). Theoretical calculations of HOMO and LUMO energy levels of fluorophores were performed based on density functional theory (DFT) with a 6-311 G basis set using Spartan 18 software (Wavefunction, Irvine, CA). […]

[2] = tested on: peritoneal dissemination of ID8 ovarian cancer; test: Intraoperative NIR imaging in mouse model of peritoneal dissemination of ovarian cancer; assay type: in vivo, mice; conditions: for TBR (tumor to background ratio): against normal pancreas
Protocol: Intraoperative NIR imaging: Seven-week-old female C57BL/6 mice were purchased from the Jackson Laboratory (Bar Harbor, ME) and housed in an AAALAC-certified facility at Massachusetts General Hospital (MGH). All animal procedures were performed in accordance with the Public Health Service Policy on Humane Care of Laboratory Animals and approved by the MGH IACUC (protocol #2016N000136). To establish a murine model of peritoneal dissemination of ovarian cancer, mice were injected intraperitoneally with 5×10^6 cells in 100 μL saline. In this model, macroscopic metastatic intraperitoneal nodules appear reproducibly at approximately 90 d. To perform NIR fluorescence imaging, mice were fed chlorophyll-free mouse chow (VWR International) at least 5 d prior to imaging to minimize autofluorescence. For in vivo imaging of ovarian cancer, animals were anesthetized with 100 mg/kg ketamine and 10 mg/kg xylazine subcutaneously (Webster Veterinary, Fort Devens, MA). Following anesthesia, a midline incision was made to expose the abdominal cavity. To evaluate in vivo tumor targetability of the NIR fluorophores, mice were intraperitoneally injected with 20 nmol of ovarian cancer-targeted NIR fluorophores dissolved in 100 μL saline containing 5 wt/v % BSA. The abdominal cavity was opened with a midline incision, and NIR images were obtained over 4 h of the exposed abdominal cavity. For NIR fluorescence imaging, we used a custom-built real-time intraoperative NIR imaging system as described previously. In this study, a 760 nm excitation was used at a fluence rate of 4 mW/cm^2, with white light (400-650 nm; 40,000 lux). Color and NIR fluorescence images were acquired simultaneously with custom software at rates up to 15 Hz over a 10 cm diameter field-of-view (FOV). Pseudo-colored lime green was used for NIR fluorescence in the color-NIR merged images. The imaging system was positioned at a distance of 9 inches from the surgical field. For all real-time intraoperative imaging, a standardized imaging protocol was used during and after the operation. General FOV (5 cm in dia.) was used to include the pancreas, head, duodenum, liver, and kidneys of a mouse, while closeup FOV (3.3 cm in dia.) included the pancreas, head, and duodenum. Color and NIR fluorescence images were taken simultaneously. Real-time fluorescence signal in tumors (Tu) and tumor-to-background ratio (TBR) compared to neighboring tissue was obtained over the period of imaging, and the fluorescence intensity was plotted to evaluate in vivo molecular biodistribution and clearance. All images were obtained using the same exposure time. Mice were euthanized 4 h post-injection with CO2 inhalation, and tumor tissues and the major organs, including the heart, lung, liver, pancreas, spleen, kidney, duodenum, intestine, muscle, and adnexa, were removed for ex vivo imaging and histological examination. NIR signals from resected tissues were imaged using the FLARE imaging system. The TBR was calculated using the same formula, with IT representing the intensity of the tumor tissue and IB representing the signal intensity of the surrounding tissue over the imaging period.
Evaluation of in vivo efficacy of NIR fluorophores for fluorescence-guided surgery (FGS): Having confirmed the pH sensitivity and tumor cell uptake of PH08 in vitro, we next evaluated the in vivo performance of the pH sensing NIR fluorophores in a mouse model of ovarian cancer. […] In this model, approximately 12 week post-peritoneal injection of ID8 cells, numerous nodules were observed on the peritoneum. These small nodules (<1 mm) are extremely difficult to localize and visualize in the surgical field. Thus, this model was suitable to test the performance of this fluorophore. For imaging of ovarian cancer, 20 nmol of PH08 was administered intraperitoneally. The abdominal cavity was then imaged on the custom-built imaging system. […]

Row | Abs λMax [1] [nm] | Em λMax [1] [nm] | QY (quantum yield) [1] [%] | ε (extinction coefficient) [1] | absorbance wavelength before red-shift ([1]; neutral pH (7.4)) [nm] | molecular absorbance ε at 760 nm ([1]; neutral pH condition (pH=7.4)) | absorbance wavelength after red-shift ([1]; pH 4.0) [nm] | molecular absorbance ε at 760 nm ([1]; pH decreases to 4.0) | Compound | optical response to pH [1] | TBR (tumor to background ratio) [2] | TBR in words ([2]; up to 4 h after administration, compared with PH08) | time to clear visualization of small tumors after injection ([2]; 20 nmol intraperitoneally) [min] | TBR against surrounding normal tissues and other major organs ([2]; 20 nmol intraperitoneally, within 10 min of injection) | retention / preservation of signals ([2]; post-topical application) | TBR ([2]; up to 4 h after injection) | fluorescence recovery / increase time ([2]; upon topical application) [min]
1 | 765 | 785 | 21.7 | 364,800 M^−1cm^−1 |  |  |  |  | CCN1/C(=C/C=C2\CCCC(/C=C/C3=[N+](CC)c4ccccc4C3(C)C)=C2c2ccccc2)C(C)(C)c2ccccc21 [PH03, 1-Ethyl-2-((E)-2-((E)-6-(2-((E)-1-ethyl-3,3-dimethylindolin-2-ylidene)ethylidene)-3,4,5,6-tetrahydro-[1,1′-biphenyl]-2-yl)vinyl)-3,3-dimethyl-3H-indol-1-ium iodide] | little to no change in response to pH | ++ (++, 2-3) | smaller TBRs |  |  |  |  | 
2 | 710 | 794 | 16.0 | 43,800 M^−1cm^−1 | 710 | 92,600 M^−1 cm^−1 | 765 | 134,500 M^−1 cm^−1 | CCN1/C(=C/C=C2\CCCC(/C=C/C3=[N+](CC)c4ccccc4C3(C)C)=C2N2CCNCC2)C(C)(C)c2ccccc21 [PH08] | increases its fluorescence in mildly acidic conditions between pH 7.0 and 4.0 | +++ (+++, 3-5) |  | ≤ 10 | ~6 | at least 4 h | > 5.5 | < 10
